{"source": "patent US20140348819A1", "about": "“Methods of Treating Cancer” (Dana-Farber Cancer Institute, Inc., priority 2011, published 2014)", "tested_on": "six V600E BRAF melanoma cell lines", "assay": "Screening of recombinant RTK ligands for ability to confer resistance to BRAFi (PLX4720) or MEKi (PD184352) (Table 4)", "type": "cell-based, human", "parameters": "ability of recombinant RTK ligand to confer resistance / ability of recombinant RTK ligand to confer resistance (screening value): scale not given here", "in_short": "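Resistance to BRAFi (PLX4720) or MEKi (PD184352) was tested in six V600E BRAF melanoma lines given one of 22 recombinant RTK ligands. For a subset of RTKs, activation was checked by high-throughput tyrosine kinase phosphorylation profiling and western blot.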"}
{"substance": "FGF1", "values": [{"measurement": "ability of recombinant RTK ligand to confer resistance", "setting": "A2058, PD184352 - 1 uM, ligand 0.4 ng/ml", "value": 1.04}, {"measurement": "ability of recombinant RTK ligand to confer resistance", "setting": "A2058, PD184352 - 1 uM, ligand 1.6 ng/ml", "value": 1.05}, {"measurement": "ability of recombinant RTK ligand to confer resistance", "setting": "A2058, PD184352 - 1 uM, ligand 6.25 ng/ml", "value": 1.04}, {"measurement": "ability of recombinant RTK ligand to confer resistance", "setting": "A2058, PD184352 - 1 uM, ligand 25 ng/ml", "value": 1.12}, {"measurement": "ability of recombinant RTK ligand to confer resistance", "setting": "A2058, PD184352 - 1 uM, ligand 100 ng/ml", "value": 1.19}, {"measurement": "ability of recombinant RTK ligand to confer resistance", "setting": "A2058, PLX4720 - 2 uM, ligand 0.4 ng/ml", "value": 1.02}, {"measurement": "ability of recombinant RTK ligand to confer resistance", "setting": "A2058, PLX4720 - 2 uM, ligand 1.6 ng/ml", "value": 1.01}, {"measurement": "ability of recombinant RTK ligand to confer resistance", "setting": "A2058, PLX4720 - 2 uM, ligand 6.25 ng/ml", "value": 0.96}, {"measurement": "ability of recombinant RTK ligand to confer resistance", "setting": "A2058, PLX4720 - 2 uM, ligand 25 ng/ml", "value": 1.05}, {"measurement": "ability of recombinant RTK ligand to confer resistance", "setting": "A2058, PLX4720 - 2 uM, ligand 100 ng/ml", "value": 1.11}, {"measurement": "ability of recombinant RTK ligand to confer resistance", "setting": "C32, PD184352 - 1 uM, ligand 0.4 ng/ml", "value": 1.01}, {"measurement": "ability of recombinant RTK ligand to confer resistance", "setting": "C32, PD184352 - 1 uM, ligand 1.6 ng/ml", "value": 1.04}, {"measurement": "ability of recombinant RTK ligand to confer resistance", "setting": "C32, PD184352 - 1 uM, ligand 6.25 ng/ml", "value": 1.03}, {"measurement": "ability of recombinant RTK ligand to confer resistance", "setting": "C32, PD184352 - 1 uM, ligand 25 ng/ml", "value": 1.02}, {"measurement": "ability of recombinant RTK ligand to confer resistance", "setting": "C32, PD184352 - 1 uM, ligand 100 ng/ml", "value": 0.97}, {"measurement": "ability of recombinant RTK ligand to confer resistance", "setting": "C32, PLX4720 - 2 uM, ligand 0.4 ng/ml", "value": 1.11}, {"measurement": "ability of recombinant RTK ligand to confer resistance", "setting": "C32, PLX4720 - 2 uM, ligand 1.6 ng/ml", "value": 1.10}, {"measurement": "ability of recombinant RTK ligand to confer resistance", "setting": "C32, PLX4720 - 2 uM, ligand 6.25 ng/ml", "value": 1.08}, {"measurement": "ability of recombinant RTK ligand to confer resistance", "setting": "C32, PLX4720 - 2 uM, ligand 25 ng/ml", "value": 0.93}, {"measurement": "ability of recombinant RTK ligand to confer resistance", "setting": "C32, PLX4720 - 2 uM, ligand 100 ng/ml", "value": 1.00}, {"measurement": "ability of recombinant RTK ligand to confer resistance", "setting": "Colo 829, PD184352 - 1 uM, ligand 0.4 ng/ml", "value": 1.02}, {"measurement": "ability of recombinant RTK ligand to confer resistance", "setting": "Colo 829, PD184352 - 1 uM, ligand 1.6 ng/ml", "value": 1.11}, {"measurement": "ability of recombinant RTK ligand to confer resistance", "setting": "Colo 829, PD184352 - 1 uM, ligand 6.25 ng/ml", "value": 1.00}, {"measurement": "ability of recombinant RTK ligand to confer resistance", "setting": "Colo 829, PD184352 - 1 uM, ligand 25 ng/ml", "value": 1.08}, {"measurement": "ability of recombinant RTK ligand to confer resistance", "setting": "Colo 829, PD184352 - 1 uM, ligand 100 ng/ml", "value": 1.12}, {"measurement": "ability of recombinant RTK ligand to confer resistance", "setting": "Colo 829, PLX4720 - 2 uM, ligand 0.4 ng/ml", "value": 0.99}, {"measurement": "ability of recombinant RTK ligand to confer resistance", "setting": "Colo 829, PLX4720 - 2 uM, ligand 1.6 ng/ml", "value": 1.09}, {"measurement": "ability of recombinant RTK ligand to confer resistance", "setting": "Colo 829, PLX4720 - 2 uM, ligand 6.25 ng/ml", "value": 1.02}, {"measurement": "ability of recombinant RTK ligand to confer resistance", "setting": "Colo 829, PLX4720 - 2 uM, ligand 25 ng/ml", "value": 1.07}, {"measurement": "ability of recombinant RTK ligand to confer resistance", "setting": "Colo 829, PLX4720 - 2 uM, ligand 100 ng/ml", "value": 1.06}, {"measurement": "ability of recombinant RTK ligand to confer resistance", "setting": "G-361, PD184352 - 1 uM, ligand 0.4 ng/ml", "value": 0.99}, {"measurement": "ability of recombinant RTK ligand to confer resistance", "setting": "G-361, PD184352 - 1 uM, ligand 1.6 ng/ml", "value": 1.09}, {"measurement": "ability of recombinant RTK ligand to confer resistance", "setting": "G-361, PD184352 - 1 uM, ligand 6.25 ng/ml", "value": 0.99}, {"measurement": "ability of recombinant RTK ligand to confer resistance", "setting": "G-361, PD184352 - 1 uM, ligand 25 ng/ml", "value": 1.08}, {"measurement": "ability of recombinant RTK ligand to confer resistance", "setting": "G-361, PD184352 - 1 uM, ligand 100 ng/ml", "value": 1.04}, {"measurement": "ability of recombinant RTK ligand to confer resistance", "setting": "G-361, PLX4720 - 2 uM, ligand 0.4 ng/ml", "value": 0.96}, {"measurement": "ability of recombinant RTK ligand to confer resistance", "setting": "G-361, PLX4720 - 2 uM, ligand 1.6 ng/ml", "value": 0.95}, {"measurement": "ability of recombinant RTK ligand to confer resistance", "setting": "G-361, PLX4720 - 2 uM, ligand 6.25 ng/ml", "value": 0.92}, {"measurement": "ability of recombinant RTK ligand to confer resistance", "setting": "G-361, PLX4720 - 2 uM, ligand 25 ng/ml", "value": 0.89}, {"measurement": "ability of recombinant RTK ligand to confer resistance", "setting": "G-361, PLX4720 - 2 uM, ligand 100 ng/ml", "value": 1.08}, {"measurement": "ability of recombinant RTK ligand to confer resistance", "setting": "SK-MEL-5, PD184352 - 1 uM, ligand 0.4 ng/ml", "value": 0.98}, {"measurement": "ability of recombinant RTK ligand to confer resistance", "setting": "SK-MEL-5, PD184352 - 1 uM, ligand 1.6 ng/ml", "value": 1.07}, {"measurement": "ability of recombinant RTK ligand to confer resistance", "setting": "SK-MEL-5, PD184352 - 1 uM, ligand 6.25 ng/ml", "value": 1.14}, {"measurement": "ability of recombinant RTK ligand to confer resistance", "setting": "SK-MEL-5, PD184352 - 1 uM, ligand 25 ng/ml", "value": 1.17}, {"measurement": "ability of recombinant RTK ligand to confer resistance", "setting": "SK-MEL-5, PD184352 - 1 uM, ligand 100 ng/ml", "value": 1.36}, {"measurement": "ability of recombinant RTK ligand to confer resistance", "setting": "SK-MEL-5, PLX4720 - 2 uM, ligand 0.4 ng/ml", "value": 1.01}, {"measurement": "ability of recombinant RTK ligand to confer resistance", "setting": "SK-MEL-5, PLX4720 - 2 uM, ligand 1.6 ng/ml", "value": 1.12}, {"measurement": "ability of recombinant RTK ligand to confer resistance", "setting": "SK-MEL-5, PLX4720 - 2 uM, ligand 6.25 ng/ml", "value": 1.12}, {"measurement": "ability of recombinant RTK ligand to confer resistance", "setting": "SK-MEL-5, PLX4720 - 2 uM, ligand 25 ng/ml", "value": 1.09}, {"measurement": "ability of recombinant RTK ligand to confer resistance", "setting": "SK-MEL-5, PLX4720 - 2 uM, ligand 100 ng/ml", "value": 1.28}, {"measurement": "ability of recombinant RTK ligand to confer resistance", "setting": "SK-MEL-28, PD184352 - 1 uM, ligand 0.4 ng/ml", "value": 1.05}, {"measurement": "ability of recombinant RTK ligand to confer resistance", "setting": "SK-MEL-28, PD184352 - 1 uM, ligand 1.6 ng/ml", "value": 0.87}, {"measurement": "ability of recombinant RTK ligand to confer resistance", "setting": "SK-MEL-28, PD184352 - 1 uM, ligand 6.25 ng/ml", "value": 0.90}, {"measurement": "ability of recombinant RTK ligand to confer resistance", "setting": "SK-MEL-28, PD184352 - 1 uM, ligand 25 ng/ml", "value": 0.92}, {"measurement": "ability of recombinant RTK ligand to confer resistance", "setting": "SK-MEL-28, PD184352 - 1 uM, ligand 100 ng/ml", "value": 1.06}, {"measurement": "ability of recombinant RTK ligand to confer resistance", "setting": "SK-MEL-28, PLX4720 - 2 uM, ligand 0.4 ng/ml", "value": 1.00}, {"measurement": "ability of recombinant RTK ligand to confer resistance", "setting": "SK-MEL-28, PLX4720 - 2 uM, ligand 1.6 ng/ml", "value": 1.02}, {"measurement": "ability of recombinant RTK ligand to confer resistance", "setting": "SK-MEL-28, PLX4720 - 2 uM, ligand 6.25 ng/ml", "value": 1.10}, {"measurement": "ability of recombinant RTK ligand to confer resistance", "setting": "SK-MEL-28, PLX4720 - 2 uM, ligand 25 ng/ml", "value": 0.98}, {"measurement": "ability of recombinant RTK ligand to confer resistance", "setting": "SK-MEL-28, PLX4720 - 2 uM, ligand 100 ng/ml", "value": 1.08}]}
